Assay results as given in patent US20220348565A1, “PHARMACEUTICAL COMPOUNDS” (SENTINEL ONCOLOGY LIMITED, priority 2019, published 2022).
pEC50, pIC50: −log10 of the molar value.

Experiments:
U87MG cells [1] = assay: U87MG human glioblastoma cell viability, SRB assay, 72 hours; assay type: cell-based; settings: listed as A-3
Protocol: The following protocol was used to measure the effects of compounds of the invention on U87MG cell viability.
U87MG cells were grown in their recommended growth media/supplements (ATCC). Cells were seeded at a concentration of 5000 cells per well into 96 well plates overnight at 37° C., 5% CO2. Cells were treated with relevant concentrations of test compound for 72 hours. After 72 hours incubation, viability was established using sulforhodamine B (SRB) colorimetric assay. Percentage viability was calculated against the mean of the DMSO treated control samples, and IC50 values for inhibition of cell growth were calculated using GraphPad Prism software by nonlinear regression (4 parameter logistic equation).

[2] = Mouse PK, plasma after i.v. and p.o. dosing (oral bioavailability); assay type: in vivo, Male CD-1 mice; settings: for half-life: read-out: T ½ (converted)
Protocol: (§1) Atropisomers A-2 and A-3 were evaluated in an in vivo mouse model to determine brain and plasma concentrations following p.o. and i.v. dosing.
(§2) Male CD-1 mice were dosed with the compounds of Examples A-2 and A-3, either by i.v. administration (2 mg/kg) or by p.o. administration (10 mg/kg). Eight samples were taken for analysis in the i.v. leg at 2, 10, 30 min, 1, 2, 4, 8, and 24 (for i.v) and 9 samples in the p.o. leg at 15, 30 min, 1, 2, 4, 8, 24, 48 and 72 hrs.
(§3) The compounds of Examples A-2 and A-3 were both formulated in 10% DMSO/90% hydroxypropyl-beta-cyclodextrin (20% w/v in water) for i.v. and p.o. dosing. N =3 mice per time point.
(§4) Post dosing, terminal blood samples were taken from individual animals and delivered into labelled polypropylene tubes containing anticoagulant (EDTA). The samples were held on wet ice for a maximum of 30 min while sampling of all the animals in the cohort was completed. The blood samples were centrifuged for plasma (4° C., 21100 g for 5 min) and the resulting plasma transferred into corresponding labelled tubes. Terminal brains from each PO dosed animal were excised, rinsed with saline and placed into pre-weighed labelled polypropylene tubes and the samples re-weighed prior to storage.
(§5) Quantitative bioanalysis was carried out using liquid chromatography—mass spectroscopy was performed. The results are shown in Tables 14, 15 and 16 below and in FIGS. 12 to 15.

HeLa cells = assay: Cells in mitosis (phospho-histone H3, mitotic index), HeLa; assay type: cell-based; settings: Homo sapiens, % mitotic cells (phospho-histone H3), 24 hours
Source text: (§6) Inhibiting the ability of PLK1 and PLK4 to bind to their partners through their PBDs is known to cause cells to arrest in mitosis. Experimentally, this can be measured by assessing the number of cells which are in mitosis at a certain time after treatment with a test compound by immunofluorescent detection of phosphorylated Histone H3 (pH3), a mark which is only present in mitotic cells. PLK1/4-PBD inhibitors are expected to cause a dose-dependent increase in pH3-positive cells, which is reported as Mitotic Index (MI)—the percentage of cells which, at a given time, are positive for this mitotic mark.
(§7) The following protocol was used to measure the effects of atropisomer A-2 and atropisomer A-3 on arresting cells in mitosis.
(§8) Cells were plated at 10 000/well in 96-well plates and incubated overnight. The following day atropisomer A-2 stocks in DMSO were diluted in medium then added to cells with a maximum final DMSO concentration on cells of 0.2%. Cells were incubated with the compound for 24 hours then fixed in 3.7% formaldehyde. Cells were permeabilised with 0.1% Triton X-100 then incubated with anti-phospho-histone H3 (Ser10) antibody (Abcam). The cells were washed with PBS then incubated with AlexaFluor 488 labelled goat anti-rabbit IgG (Invitrogen) in the presence of 4 ug/mL Hoechst 33342 (Invitrogen). […]

[3] = test system: wild-type KRAS HeLa cells; assay: HeLa cell viability, wild-type KRAS transgene, Cell Titre Blue; assay type: cell-based; settings: 72 hours, listed as A-3, read-out: WT GI50
Protocol: (§9) Atropisomers A-1, A-2, A-3 and A-4 were tested on HeLa cells engineered to inducibly express wild-type or oncogenic KRasG12V transgenes using the FLP-in/T-Rex system (Invitrogen). Cells were plated, and then treated with or without Doxycycline to induce transgene expression, and then treated with serially-diluted PBD inhibitors. After 72 hours of incubation, cell viability was assessed using the Cell Titre Blue reagent (Promega) and a BMG Pherastar plate reader. The effect of PBD inhibition on cell viability with either wild-type or oncogenic G12V KRAS was assessed using GraphPad Prism.
(§10) From the results obtained by following the above protocol, the GI50 values against the wild-type and KRAS G12V HeLa cell line of each of the atropisomers were determined as shown in Table 12.

KRAS G12V HeLa cell line = assay: HeLa cell viability, oncogenic KRasG12V transgene, Cell Titre Blue; assay type: cell-based; settings: KRAS G12V HeLa cells, 72 hours; listed as A-3
Protocol: as §9, §10

[4] = Mouse PK, brain exposure after p.o. dosing; assay type: in vivo, Male CD-1 mice
Protocol: as §1, §2, §3, §4, §5

U87MG cells [5] = assay: Cells in mitosis (phospho-histone H3, mitotic index), U87MG; assay type: cell-based; settings: Homo sapiens, U-87 MG; % mitotic cells (phospho-histone H3), 24 hours
Source text: as §6, §7, §8

[6] = mouse, 2 mg/kg, 2 mq/Kq IV, male CD-1 mice, plasma
[7] = mouse, 10 mg/kg, 10 mq/Kq PO, male CD-1 mice, plasma
[8] = mouse, po, brain exposure, p.o. 10 mg/kg, male CD-1 mice

SMILES: CN(C)CCNC(=O)c1ccc(-c2ccc(-c3ccc(Cl)cc3)n2-c2ccccc2C(F)(F)F)nc1 (single isomer, unassigned) [Atropisomer A-3, 6-[5-(4-chlorophenyl)-1-[2-(trifluoromethyl)phenyl]pyrrol-2-yl]-N-[2-(dimethylamino)ethyl]pyridine-3-carboxamide]
- pIC50 (U87MG cells [1]): 6.82
- CI ([2]; 2 mq/Kq IV, male CD-1 mice, plasma): 16.8 mL/min/kg
- F ([2]; 10 mq/Kq PO vs 2 mq/Kq IV, male CD-1 mice): 70%
- AUC(0-inf) [2, 6]: 1990 ng·h/mL
- Cmax [2, 6]: 274 ng/mL
- half-life [2, 6]: 504 min
- AUC(0-inf) [2, 7]: 6920 ng·h/mL
- Cmax [2, 7]: 322 ng/mL
- half-life [2, 7]: 498 min
- AUC(0-t) ([2]; mouse, po, plasma, p.o. 10 mg/kg, male CD-1 mice, read-out: AUClast plasma): 6920 ng·h/mL
- oral absorption / oral bioavailability (in words) ([2]; oral dosing in mice): highly absorbed
- pEC50 (HeLa cells): 7.52
- GI50 [3]: 4.68 nM
- GI50 (KRAS G12V HeLa cell line): 2.6 nM
- Cmax [4, 8]: 604 ng/mL
- Tmax [4, 8]: 8 h
- half-life ([4]; mouse, po, brain exposure, p.o. 10 mg/kg, male CD-1 mice, read-out: T ½ (converted)): 492 min
- AUC(0-t) ([4]; mouse, po, brain, p.o. 10 mg/kg, male CD-1 mice, read-out: AUClast brain): 14100 ng·h/mL
- brain exposure (in words) ([4]; oral dosing in mice): high brain exposure
- pEC50 (U87MG cells [5]): 7.00
